Patent US7960420B2, “Diazonamide analogs with improved solubility” (Joyant Pharmaceuticals, Inc, priority 2007, dated 2011)
Like-named read-outs stand apart in the source and are kept apart here.

What was measured:
[1] = aqueous solubility in de-ionized water; format: physicochemical; conditions: for solubility: thermodynamic from solid
Experimental: Unless otherwise indicated, the solubility measurements described herein are determined by dissolving the test compound in de-ionized (DI) water at 25° C. […] In particular, the compounds provided by Examples 22, 23, 28, 30, 31, 37 and 38 are water soluble.

[2] = system: HCC461 human NSCLC xenograft; experiment: HCC461 human NSCLC xenograft tumor model in mice; format: in vivo; conditions: FIG. 1; 20 mg/kg per dose; injections at days 7, 9, 11, 14, 16 and 18 post tumor cell injection
Experimental: Compound 22 (prepared according to Example 22) and Compound 28 (prepared according to Example 28) were tested in a HCC461 human NSCLC xenograft tumor model in mice.
Preparation of Tumor Cells • 1. Hcc461 cells were cultured in complete RPMI medium and excluded any contamination • 2. When cells are 70-80% confluent, medium was removed and cells were washed with serum free media, trypsinized, harvested and washed with serum free media for three times by centrifuge. After final washing, cells were counted and mixed with matrigel at 1:1 ration in volume. Cells were suspended in a volume that 200 PI contains required number of cells per injection.
Preparation of Mice • 1. Mice should be 4-6 weeks old. • 2. Allow 3-5 days acclimatization period after mice have arrived.
Preparation of the Injection • 1. Clean and sterilize the inoculation area of the mice with iodine solutions and ethanol. • 2. Take cells with 1-cc syringe. • 3. Inject cells (1×10^7) with 27 gauge needles subcutaneously (s.c.) into the lower flank of the mice. • 4. Therapy was started after 1 week when the tumors have reached an average volume of ˜250 mm^3. • 5. Tumor diameters are measured with digital calipers, and the tumor volume in mm^3 is calculated by the formula: Volume=(width)^2×length/2
Treatment • 1. Compound 22 and Compound 28 were dissolved in water at concentration of 5 mg/ml and diluted to working solution with D5W before injection. Compound 16 was administered at 20 mg/kg in a mixture of 5% ethanol-5% cremaphor-90% saline. • 2. Each tumor bearing mouse was injected with Compound 22 at 20 mg/kg, Compound 28 at 20 mg/kg or at 10 mg/kg, or Compound 16 at 20 mg/kg via tail vein and continually injected with the same method for a total of 6 times, on days 7, 9, 11, 14, 16, and 18 post tumor-cell injection.

[3] = stability of aqueous solution at room temperature; format: physicochemical
Experimental: To the combined filtration above was added a stock solution of NaOH in water (14.4 mg/mL, 1 mL, 0.360 mmol). The resulting solution was concentrated to remove most of MeOH at room temperature. Then the residue was diluted with DI water (100 mL). This solution was filtered through a syringe filter (0.45 um) to remove tiny particles. The filtrate was lyophilized to afford the desired compound monosodium salt, 31 (285 mg, 97% yield for two steps).

HCT-116 cells = conditions: a human colorectal carcinoma line; cited from earlier work
microtubule assembly = conditions: Cruz-Monserrate et al., Mol. Pharmacol., 2003; cited from earlier work
[4] = de-ionized (DI) water at 25° C., read-out: water solubility

## CCC(O)(CC)C(=O)N[C@H]1Cc2ccc3c(c2)[C@]24C5=C(N=C(O5)[C@H](C(C)C)NC1=O)c1ncc(o1)-c1cn(P(=O)(O)O)c5cccc(c15)-c1cccc2c1NC4O3 (stereo partly drawn) [Compound 30]
[1]; [4]
  solubility: > 1000 µg/mL

## CC(C)[C@@H]1NC(=O)[C@@H](NC(=O)[C@@H](OP(=O)(O)O)C(C)C)Cc2ccc3c(c2)[C@]24C5=C(N=C1O5)c1ncc(o1)-c1c[nH]c5cccc(c15)-c1cccc2c1NC4O3 (stereo partly drawn) [Compound 22]
[1]; [4]
  solubility: > 1000 µg/mL
[2]
  tumor free animals: no tumor free animals
  weight loss in the treated group: No weight loss

## CCC(O)(CC)C(=O)N[C@H]1Cc2ccc3c(c2)[C@]24C5=C(N=C(O5)[C@H](C(C)C)NC1=O)c1ncc(o1)-c1cn(P(=O)([O-])O)c5cccc(c15)-c1cccc2c1NC4O3.[Na+] (stereo partly drawn) [Compound 31]
[1]; [4]
  solubility: > 1000 µg/mL
[1]; water, 25 °C, water, read-out: solubility in water
  solubility: 20000 µg/mL
[3]
  time for which the aqueous solution is stable: more than 48 hours

## CC(C)[C@H](O)C(=O)N[C@H]1Cc2ccc3c(c2)[C@]24C5=C(N=C(O5)[C@H](C(C)C)NC1=O)c1ncc(o1)-c1cn(P(=O)(O)O)c5cccc(c15)-c1cccc2c1NC4O3 (stereo partly drawn) [Compound 28]
[1]; [4]
  solubility: > 1000 µg/mL

## CCC(O)(CC)C(=O)N[C@H]1Cc2ccc3c(c2)C24C5=C(N=C(O5)[C@H](C(C)C)NC1=O)c1ncc(o1)-c1c[nH]c5c(OP(=O)([O-])[O-])ccc(c15)-c1cccc2c1NC4O3.[Na+].[Na+] (stereo partly drawn) [Compound 38]
[1]; [4]
  solubility: > 1000 µg/mL

## CC(C)[C@H](O)C(=O)NC1Cc2ccc3c(c2)[C@]24C5=C(N=C(O5)[C@H](C(C)C)NC1=O)c1nc(Cl)c(o1)-c1c(Cl)[nH]c5cccc(c15)-c1cccc2c1NC4O3 (stereo partly drawn) [Diazonamide A]
HCT-116 cells
  GI50 values (50% growth inhibitory concentration): less than 15 ng/ml
Microtubule assembly
  inhibition of microtubule assembly: inhibit microtubule assembly

## CC(C)C1NC(=O)[C@@H](NC(=O)[C@@H](O)C(C)C)Cc2ccc3c(c2)C24C5=C(N=C1O5)c1ncc(o1)-c1c[nH]c5cccc(c15)-c1cccc2c1N[C@H]4O3 (stereo partly drawn) [Compound 16]
[2]
  tumor free animals: no tumor free animals

## CC(C)[C@@H]1NC(=O)[C@@H](NC(=O)[C@@H](OP(=O)([O-])O)C(C)C)Cc2ccc3c(c2)[C@]24C5=C(N=C1O5)c1ncc(o1)-c1c[nH]c5cccc(c15)-c1cccc2c1NC4O3.[Na+] (stereo partly drawn) [Compound 23]
[1]; 1 mL of de-ionized water
  amount shown to dissolve in 1 mL of de-ionized water: 5 mg
[1]; [4]
  solubility: > 1000 µg/mL

## CCC(O)(CC)C(=O)N[C@H]1Cc2ccc3c(c2)C24C5=C(N=C(O5)[C@H](C(C)C)NC1=O)c1ncc(o1)-c1c[nH]c5c(OP(=O)(O)O)ccc(c15)-c1cccc2c1NC4O3 (stereo partly drawn) [Compound 37]
[1]; [4]
  solubility: > 1000 µg/mL
